Source: patent US20250268884A1, “Deuterated Domperidone for Treating Gastroparesis” (CinDome Pharma, Inc., priority 2022, published 2025)

Columns and labels:
[1] = tested on: adults with idiopathic or diabetic gastroparesis; experiment: PAGI-SYM questionnaire total and subscale scores, Phase 2a; assay type: in vivo, human; details: for PAGI-SYM bloating subscale score, Baseline / PAGI-SYM bloating subscale score, Change from baseline to Day 14 / PAGI-SYM bloating subscale score, Day 14 / PAGI-SYM bloating subscale score, Percent change from baseline to Day 14 / PAGI-SYM fullness/early satiety subscale score, Baseline / PAGI-SYM fullness/early satiety subscale score, Change from baseline to Day 14 / PAGI-SYM fullness/early satiety subscale score, Day 14 / PAGI-SYM fullness/early satiety subscale score, Percent change from baseline to Day 14 / PAGI-SYM heartburn/regurgitation subscale score, Baseline / PAGI-SYM heartburn/regurgitation subscale score, Change from baseline to Day 14 / PAGI-SYM heartburn/regurgitation subscale score, Day 14 / PAGI-SYM heartburn/regurgitation subscale score, Percent change from baseline to Day 14 / PAGI-SYM lower abdominal pain subscale score, Baseline / PAGI-SYM lower abdominal pain subscale score, Change from baseline to Day 14 / PAGI-SYM lower abdominal pain subscale score, Day 14 / PAGI-SYM lower abdominal pain subscale score, Percent change from baseline to Day 14 / PAGI-SYM nausea/vomiting subscale score, Baseline / PAGI-SYM nausea/vomiting subscale score, Change from baseline to Day 14 / PAGI-SYM nausea/vomiting subscale score, Day 14 / PAGI-SYM nausea/vomiting subscale score, Percent change from baseline to Day 14 / PAGI-SYM total score, Baseline / PAGI-SYM total score, Change from baseline to Day 14 / PAGI-SYM total score, Day 14 / PAGI-SYM total score, Percent change from baseline to Day 14 / PAGI-SYM upper abdominal pain subscale score, Baseline / PAGI-SYM upper abdominal pain subscale score, Change from baseline to Day 14 / PAGI-SYM upper abdominal pain subscale score, Day 14 / PAGI-SYM upper abdominal pain subscale score, Percent change from baseline to Day 14: mean, Safety Population
Description: Subjects were Evaluated as Follows: • Days −28 to −11: Screening procedures were performed. The ANMS GCSI-DD questionnaire was completed daily for at least 14 days prior to randomization (Day 1); • Days −10 to −3: The ANMS GCSI-DD questionnaire was completed daily. A GEBT was performed on a single day within this window, with breath samples obtained twice prior to consumption of a standardized, carbon-13 (^13C)-enriched meal and then at 45, 90, 120, 150, 180, and 240 minutes after meal consumption after an 8-hour fast. […] On Day 14 (±2 days), the PAGI-SYM and Clinical Grading Assessment questionnaires were completed prior to the final dose of study drug. • A GEBT was administered 30 minutes after study drug administration on Day 14 (±2 days). Breath samples were obtained twice prior to ^13C-enriched meal consumption and then at 45, 90, 120, 150, 180, and 240 minutes after meal consumption after an 8-hour fast. If a subject withdrew from the study prior to the Day 14 (±2 days) GEBT, attempts should have been made to perform a GEBT on the last day of study drug administration. Clinical Grading Assessment Scales were also performed.
The PAGI-SYM includes 6 subscales: heartburn/regurgitation, fullness/early satiety, nausea/vomiting, bloating, upper abdominal pain, and lower abdominal pain.

[2] = Thorough QT study, plasma pharmacokinetics; assay type: in vivo, human; details: healthy subjects
Source text: Blood samples for PK determination were drawn at the same time points immediately after the ECG extractions.

[3] = tested on: cardiac conduction (QRS interval) in healthy subjects; details: human, in vivo
Description: Categorical T-wave morphology analysis and measurement of PR and QRS intervals were fully performed manually using a semi-automated process in 3 of the 10 ECG replicates at each time point. Final quality control and diagnostic interpretations were performed by the study cardiologist.
An unstructured covariance structure was used to specify the repeated measures at post-dose time points for subject within treatment period. The model also included a subject-specific random effect.

[4] = 10 mg dose, healthy subjects

## [2H]c1c([2H])c([2H])c2c([nH]c(=O)n2CCCN2CCC(n3c(=O)[nH]c4cc(Cl)ccc43)CC2)c1[2H] [Deudomperidone, 1-{3-[4-(5-chloro-2-oxo-2,3-dihydro-1H-1,3-benzodiazol-1-yl)piperidin-1yl]propyl}-2,3-dihydro(4,5,6,7-D4)-1H-1,3-benzodiazol-2-one]
[1]; 5 mg BID
  PAGI-SYM bloating subscale score, Baseline: 3.67
  PAGI-SYM bloating subscale score, Change from baseline to Day 14: −1.00
  PAGI-SYM bloating subscale score, Day 14: 2.67
  PAGI-SYM bloating subscale score, Percent change from baseline to Day 14: −30.16%
  PAGI-SYM fullness/early satiety subscale score, Baseline: 3.89
  PAGI-SYM fullness/early satiety subscale score, Change from baseline to Day 14: −1.53
  PAGI-SYM fullness/early satiety subscale score, Day 14: 2.36
  PAGI-SYM fullness/early satiety subscale score, Percent change from baseline to Day 14: −38.04%
  PAGI-SYM heartburn/regurgitation subscale score, Baseline: 3.63
  PAGI-SYM heartburn/regurgitation subscale score, Change from baseline to Day 14: −1.79
  PAGI-SYM heartburn/regurgitation subscale score, Day 14: 1.84
  PAGI-SYM heartburn/regurgitation subscale score, Percent change from baseline to Day 14: −50.23%
  PAGI-SYM lower abdominal pain subscale score, Baseline: 3.11
  PAGI-SYM lower abdominal pain subscale score, Change from baseline to Day 14: −1.67
  PAGI-SYM lower abdominal pain subscale score, Day 14: 1.44
  PAGI-SYM lower abdominal pain subscale score, Percent change from baseline to Day 14: −52.08%
  PAGI-SYM nausea/vomiting subscale score, Baseline: 2.74
  PAGI-SYM nausea/vomiting subscale score, Change from baseline to Day 14: −1.00
  PAGI-SYM nausea/vomiting subscale score, Day 14: 1.74
  PAGI-SYM nausea/vomiting subscale score, Percent change from baseline to Day 14: −39.58%
  PAGI-SYM total score, Baseline: 3.37
  PAGI-SYM total score, Change from baseline to Day 14: −1.35
  PAGI-SYM total score, Day 14: 2.02
  PAGI-SYM total score, Percent change from baseline to Day 14: −40.13%
  PAGI-SYM upper abdominal pain subscale score, Baseline: 3.17
  PAGI-SYM upper abdominal pain subscale score, Change from baseline to Day 14: −1.11
  PAGI-SYM upper abdominal pain subscale score, Day 14: 2.06
  PAGI-SYM upper abdominal pain subscale score, Percent change from baseline to Day 14: −37.28%
[1]; 10 mg BID
  PAGI-SYM bloating subscale score, Baseline: 3.84
  PAGI-SYM bloating subscale score, Change from baseline to Day 14: −1.17
  PAGI-SYM bloating subscale score, Day 14: 2.65
  PAGI-SYM bloating subscale score, Percent change from baseline to Day 14: −26.78%
  PAGI-SYM fullness/early satiety subscale score, Baseline: 3.60
  PAGI-SYM fullness/early satiety subscale score, Change from baseline to Day 14: −0.88
  PAGI-SYM fullness/early satiety subscale score, Day 14: 2.71
  PAGI-SYM fullness/early satiety subscale score, Percent change from baseline to Day 14: −24.08%
  PAGI-SYM heartburn/regurgitation subscale score, Baseline: 2.67
  PAGI-SYM heartburn/regurgitation subscale score, Change from baseline to Day 14: −1.07
  PAGI-SYM heartburn/regurgitation subscale score, Day 14: 1.62
  PAGI-SYM heartburn/regurgitation subscale score, Percent change from baseline to Day 14: −25.45%
  PAGI-SYM lower abdominal pain subscale score, Baseline: 2.02
  PAGI-SYM lower abdominal pain subscale score, Change from baseline to Day 14: −0.79
  PAGI-SYM lower abdominal pain subscale score, Day 14: 1.25
  PAGI-SYM lower abdominal pain subscale score, Percent change from baseline to Day 14: −38.38%
  PAGI-SYM nausea/vomiting subscale score, Baseline: 2.75
  PAGI-SYM nausea/vomiting subscale score, Change from baseline to Day 14: −0.93
  PAGI-SYM nausea/vomiting subscale score, Day 14: 1.78
  PAGI-SYM nausea/vomiting subscale score, Percent change from baseline to Day 14: −30.39%
  PAGI-SYM total score, Baseline: 2.94
  PAGI-SYM total score, Change from baseline to Day 14: −0.97
  PAGI-SYM total score, Day 14: 1.97
  PAGI-SYM total score, Percent change from baseline to Day 14: −31.18%
  PAGI-SYM upper abdominal pain subscale score, Baseline: 2.74
  PAGI-SYM upper abdominal pain subscale score, Change from baseline to Day 14: −0.97
  PAGI-SYM upper abdominal pain subscale score, Day 14: 1.82
  PAGI-SYM upper abdominal pain subscale score, Percent change from baseline to Day 14: −24.47%
[1]; 20 mg QD
  PAGI-SYM bloating subscale score, Baseline: 3.57
  PAGI-SYM bloating subscale score, Change from baseline to Day 14: −1.10
  PAGI-SYM bloating subscale score, Day 14: 2.47
  PAGI-SYM bloating subscale score, Percent change from baseline to Day 14: −36.38%
  PAGI-SYM fullness/early satiety subscale score, Baseline: 3.42
  PAGI-SYM fullness/early satiety subscale score, Change from baseline to Day 14: −1.10
  PAGI-SYM fullness/early satiety subscale score, Day 14: 2.32
  PAGI-SYM fullness/early satiety subscale score, Percent change from baseline to Day 14: −31.45%
  PAGI-SYM heartburn/regurgitation subscale score, Baseline: 2.68
  PAGI-SYM heartburn/regurgitation subscale score, Change from baseline to Day 14: −1.06
  PAGI-SYM heartburn/regurgitation subscale score, Day 14: 1.62
  PAGI-SYM heartburn/regurgitation subscale score, Percent change from baseline to Day 14: −34.56%
  PAGI-SYM lower abdominal pain subscale score, Baseline: 1.93
  PAGI-SYM lower abdominal pain subscale score, Change from baseline to Day 14: −0.40
  PAGI-SYM lower abdominal pain subscale score, Day 14: 1.53
  PAGI-SYM lower abdominal pain subscale score, Percent change from baseline to Day 14: −10.91%
  PAGI-SYM nausea/vomiting subscale score, Baseline: 2.49
  PAGI-SYM nausea/vomiting subscale score, Change from baseline to Day 14: −1.20
  PAGI-SYM nausea/vomiting subscale score, Day 14: 1.29
  PAGI-SYM nausea/vomiting subscale score, Percent change from baseline to Day 14: −50.18%
  PAGI-SYM total score, Baseline: 2.72
  PAGI-SYM total score, Change from baseline to Day 14: −0.93
  PAGI-SYM total score, Day 14: 1.80
  PAGI-SYM total score, Percent change from baseline to Day 14: −39.03%
  PAGI-SYM upper abdominal pain subscale score, Baseline: 2.27
  PAGI-SYM upper abdominal pain subscale score, Change from baseline to Day 14: −0.70
  PAGI-SYM upper abdominal pain subscale score, Day 14: 1.57
  PAGI-SYM upper abdominal pain subscale score, Percent change from baseline to Day 14: −32.81%
[1]; all deudomperidone treatment groups, placebo also decreased
  PAGI-SYM total and subscale scores at Day 14: decreased from baseline
[2]; 30 mg single dose
  time of highest mean plasma concentration of deuterated domperidone: 1.5 hours post-dose
[2]; 100 mg single dose
  time of highest mean plasma concentration of deuterated domperidone: 2 hours post-dose
[3]
  LS mean placebo-corrected ΔQRS (ΔΔQRS): ±1.1 ms
[4]
  Cmax lower than the same oral dose domperidone: approximately 50%
